Reference: publication PMC13252604, “First Generation Proteolysis Targeting Chimeras (PROTACs) for the Treatment of Progeria” (Advanced Science, 2026)

System: HGADFN167 Lmna^G608G/G608G fibroblasts
Experiment: RT-qPCR of senescence markers in human progeroid cells
Assay type: cell-based
Conditions: HGADFN167, 5 µM, 20 days
Description: FIGURE 6 (A) Representative cropped immunoblots and progerin quantification in human Lmna^G608G/G608G fibroblasts. MW, molecular weight (in kDa) markers. […] (B) PROTAC 2 increases cell proliferation (upper panels) and decreases the number of misshapen nuclei (lower panels). White arrows highlight selected misshapen nuclei. (C) PROTAC 2 decreases senescence‐associated β‐galactosidase (SA‐βgal) activity, interleukin (IL) 6, p16 and p21 senescent markers. Bar graphs show mean±sem of 2 (SA‐βgal and p21) or 3 (IL‐6 and p16) independent experiments performed in triplicate. (D) PROTAC 2 decreases phosphorylated histone 2AX (pH2AX) and increases trimethylated histone 3 (H3K9Me3) levels. (E) PROTAC 2 increases the oxygen consumption rate (OCR), ATP production and the number of healthy mitochondria in human progeroid cells. Bar graphs show mean±sem of 2 independent experiments performed in duplicate. […] Data were analysed using one‐way ANOVA followed by Dunnett's post–hoc test vs vehicle (panel A) or vs G608G cells (panels B‐E). ^*, p < 0.05; ^**, p < 0.01; ^***, p < 0.001; ^****, p < 0.0001. […]
ferrocyanide, 0.6 mL 5 M NaCl, 0.2 mL 0.2 M MgCl2, (all from Sigma Aldrich) and 6.2 mL of deionized water in a total volume of 20 mL] in the dark in a humidified incubator at 37 °C for 24 h without CO2 supply. Then, an equal volume of the supernatant of each well was transferred to a new 96-well plate for fluorescence measurement. The resultant production of fluorescein was measured using a FluoStar Optima instrument (BMG Labtech) with an excitation of 485 nm and emission at 535 nm. […]
Total RNA was extracted by RNAeasy Mini Kit (Qiagen) according to the manufacturer instructions and subsequently quantified using the NanoPhotometer N60 (Implen). […] Quantitative real-time PCR was run in the QuantStudio 7FLEX (Applied Biosystems) system and results were normalized according to β-actin quantification.
Specific `in-house´ designed primers (see sequence below) were purchased from Metabion. The threshold cycle (Ct) was determined, and the relative gene expression was […]

CC1(C)Oc2cc3oc(=O)ccc3cc2C[C@@H]1OC(=O)CCCCCNc1cccc2c1C(=O)N(C1CCC(=O)NC1=O)C2=O (stereo partly drawn) [compound 2]
significantly reduced: IL‐6 senescent marker | p16 senescent marker | p21 senescent marker
